Measurements published in patent US7601716B2, “Pyridopyrazines and derivatives thereof as ALK and c-Met inhibitors” (Cephalon, Inc., priority 2006, dated 2009).
Where a name gives a salt, the structure may show the parent alone.

Legend:
[1] = target: T1, c-Met (cytoplasmic domain) (Homo sapiens, UniProt P08581); assay: c-Met Kinase Assay (ELISA/TRF, PLC-γ substrate); assay type: biochemical; conditions: 3 μM ATP (Km level); read-out: c-Met Kinase Inhibition (IC50)
T1 construct: Reactions were initiated with 30 ng/mL c-Met (cytoplasmic domain, Invitrogen Corporation #PV3143); purchased Invitrogen Corporation PV3143
T1 sequence (P08581 956-1390 limits assumed): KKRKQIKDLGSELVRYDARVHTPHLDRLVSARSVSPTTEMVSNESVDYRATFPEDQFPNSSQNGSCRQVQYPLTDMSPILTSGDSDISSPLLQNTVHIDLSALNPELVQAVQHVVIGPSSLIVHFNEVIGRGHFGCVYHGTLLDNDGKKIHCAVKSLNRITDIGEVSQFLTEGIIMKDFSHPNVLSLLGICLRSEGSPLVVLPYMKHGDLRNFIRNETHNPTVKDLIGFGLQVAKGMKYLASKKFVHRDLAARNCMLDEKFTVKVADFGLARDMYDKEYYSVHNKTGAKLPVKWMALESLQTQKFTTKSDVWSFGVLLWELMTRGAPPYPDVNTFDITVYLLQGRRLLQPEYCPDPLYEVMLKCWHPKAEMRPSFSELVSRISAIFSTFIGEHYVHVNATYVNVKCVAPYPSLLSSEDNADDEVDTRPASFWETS
Procedure: Example compounds were tested for their ability to inhibit the kinase activity of baculovirus-expressed ALK using a modification of the ELISA protocol reported for trkA in Angeles, T. S. et al., Anal. Biochem. 1996, 236, 49-55, which is incorporated herein by reference in its entirety. Phosphorylation of the substrate, phospholipase C-gamma (PLC-γ) generated as a fusion protein with glutathione S-transferase (GST) as reported in Rotin, D. et al., EMBO J. 1992, 11, 559-567, which is incorporated herein by reference in its entirety, was detected with a europium-labeled anti-phosphotyrosine antibody and measured by time-resolved fluorescence (TRF). Briefly, each 96-well plate was coated with 100 μL/well of 10 μg/mL substrate (phospholipase C-γ) in Tris-buffered saline (TBS). […] The reaction was initiated by adding enzyme (30 ng/ml ALK) and was allowed to proceed at 37° C. for 15 minutes. Detection of the phosphorylated product was performed by adding 100 μl/well of Eu-N1 labeled PT66 antibody (Perkin Elmer # AD0041). Incubation at 37° C. then proceeded for one (1) hour, followed by addition of 100 μL enhancement solution (Wallac #1244-105). The plate was gently agitated and after thirty minutes, the fluorescence of the resulting solution was measured using the EnVision 2100 (or 2102) multilabel plate reader (Perkin Elmer).
Data analysis was performed using ActivityBase (IDBS, Guilford, UK). IC50 values were calculated by plotting percent inhibition versus log10 of the concentration of compound and fitting to the nonlinear regression sigmoidal dose-response (variable slope) equation in XLFit (IDBS, Guilford, UK).
Reactions were initiated with 30 ng/mL c-Met (cytoplasmic domain, Invitrogen Corporation #PV3143).

[2] = target: baculovirus-expressed ALK (Homo sapiens, UniProt Q9UM73); assay: ALK Kinase Assay (ELISA/TRF, PLC-γ substrate); assay type: biochemical; conditions: read-out: ALK Kinase Inhibition (IC50); also: 1 µM ATP (Km level)
Sequence of baculovirus-expressed ALK (Q9UM73 19-1620): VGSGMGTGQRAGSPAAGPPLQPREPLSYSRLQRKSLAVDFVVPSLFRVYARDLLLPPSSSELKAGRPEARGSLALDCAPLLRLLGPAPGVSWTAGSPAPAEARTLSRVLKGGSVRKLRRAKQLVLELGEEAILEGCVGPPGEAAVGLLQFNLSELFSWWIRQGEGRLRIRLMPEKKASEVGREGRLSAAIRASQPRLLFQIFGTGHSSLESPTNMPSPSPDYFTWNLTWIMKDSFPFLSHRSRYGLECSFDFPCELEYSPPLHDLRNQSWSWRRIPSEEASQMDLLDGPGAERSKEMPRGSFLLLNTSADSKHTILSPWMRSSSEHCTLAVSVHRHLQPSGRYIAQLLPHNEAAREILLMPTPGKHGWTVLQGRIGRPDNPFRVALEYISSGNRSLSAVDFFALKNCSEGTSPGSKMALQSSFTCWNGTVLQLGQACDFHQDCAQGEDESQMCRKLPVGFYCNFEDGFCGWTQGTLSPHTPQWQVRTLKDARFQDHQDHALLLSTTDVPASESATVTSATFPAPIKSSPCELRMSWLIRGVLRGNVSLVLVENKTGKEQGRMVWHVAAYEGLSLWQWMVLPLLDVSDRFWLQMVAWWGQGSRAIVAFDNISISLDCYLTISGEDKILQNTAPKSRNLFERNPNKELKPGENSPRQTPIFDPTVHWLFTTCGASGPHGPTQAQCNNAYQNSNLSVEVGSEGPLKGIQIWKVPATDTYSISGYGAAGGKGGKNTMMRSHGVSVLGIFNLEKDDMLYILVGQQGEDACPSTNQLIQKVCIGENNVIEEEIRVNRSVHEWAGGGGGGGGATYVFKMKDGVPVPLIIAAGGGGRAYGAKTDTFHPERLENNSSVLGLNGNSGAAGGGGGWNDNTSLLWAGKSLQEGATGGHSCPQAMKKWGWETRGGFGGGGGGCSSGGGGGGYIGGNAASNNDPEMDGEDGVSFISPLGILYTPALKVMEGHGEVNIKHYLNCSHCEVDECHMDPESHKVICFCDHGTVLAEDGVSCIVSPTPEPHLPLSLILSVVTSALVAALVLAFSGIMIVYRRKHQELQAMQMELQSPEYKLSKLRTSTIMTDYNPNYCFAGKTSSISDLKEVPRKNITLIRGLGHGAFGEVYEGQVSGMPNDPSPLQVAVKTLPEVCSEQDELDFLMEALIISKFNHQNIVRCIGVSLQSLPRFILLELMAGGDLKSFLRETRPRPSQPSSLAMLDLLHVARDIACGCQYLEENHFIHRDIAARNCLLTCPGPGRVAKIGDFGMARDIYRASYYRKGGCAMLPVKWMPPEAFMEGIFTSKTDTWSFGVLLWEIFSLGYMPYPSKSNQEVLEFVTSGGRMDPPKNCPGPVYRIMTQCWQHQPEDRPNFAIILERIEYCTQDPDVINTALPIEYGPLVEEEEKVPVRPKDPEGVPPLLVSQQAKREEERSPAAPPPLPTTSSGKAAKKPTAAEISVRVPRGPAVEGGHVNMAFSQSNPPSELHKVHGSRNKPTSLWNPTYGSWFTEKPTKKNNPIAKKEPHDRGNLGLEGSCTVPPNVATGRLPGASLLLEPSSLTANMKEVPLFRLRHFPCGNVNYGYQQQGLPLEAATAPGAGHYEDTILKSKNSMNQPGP
In short: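 GST-PLC-γ coat 10 μg/mL/TBS; 30 ng/ml ALK, 37° C, 15 min; Eu-PT66 anti-pTyr 1 h 37° C, enhancement, TRF. IC50: % inhib vs log10[cpd], variable-slope sigmoid.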

SMILES	IC50 [1] [µM]	IC50 [2] [µM]
O=C(NCCCN1CCOCC1)c1ccc(-c2cnc3c(c2)N(Cc2ccccc2)C(=O)CN3)cc1 [Example 14, 4-(1-Benzyl-2-oxo-1,2,3,4-tetrahydropyrido[2,3-b]pyrazin-7-yl)-N-(3-morpholin-4-yl-propyl)benzamide, trifluoroacetic acid salt]	> 100	10 to 100
CN1CCN(c2cc(-c3cnc4c(c3)N(Cc3ccc(C(F)(F)F)o3)CCN4)ccn2)CC1 [Example 293, 7-[2-(4-Methylpiperazin-1-yl)pyridin-4-yl]-1-[5-(trifluoromethyl)furan-2-ylmethyl]-1,2,3,4-tetrahydropyrido[2,3-b]pyrazine]	1 to 10	1 to 10
CN1CCN(c2cc(-c3cnc4c(c3)C(Oc3cccc(Cl)c3)CCN4)ccn2)CC1 (stereo not shown) [Example 278, 4-(3-Chlorophenoxy)-6-[2-(4-methylpiperazin-1-yl)pyridin-4-yl]-1,2,3,4-tetrahydro-[1,8]naphthyridine]	1 to 10	1 to 10
CN1CCN(C(=O)c2cnc3c(c2)N(Cc2cc(F)ccc2F)CCN3)CC1 [Example 79, [1-(2,5-Difluorobenzyl)-1,2,3,4-tetrahydropyrido[2,3-b]pyrazin-7-yl]-(4-methylpiperazin-1-yl)methanone]	> 100	10 to 100
O=C(c1ccc(-c2cnc3c(c2)N(C(=O)Cc2cc(F)ccc2F)CCN3)cc1)N1CCC(N2CCCC2)CC1 [Example 114, 2-(2,5-Difluorophenyl)-1-{7-[4-(4-(pyrrolidin-1-yl)piperidine-1-carbonyl)phenyl]-3,4-dihydro-2H-pyrido[2,3-b]pyrazin-1-yl}ethanone]	10 to 100	1 to 10
CN1CCN(C(=O)c2ccc(-c3cnc4c(c3)N(Cc3c(F)ccc(F)c3Cl)C(=O)CN4)cc2)CC1 [Example 7, 1-(2-Chloro-3,6-difluorobenzyl)-7-[4-(4-methylpiperazine-1-carbonyl)phenyl]-3,4-dihydro-1H-pyrido[2,3-b]pyrazin-2-one]	10 to 100	1 to 10
O=C1CNc2ncc(-c3ccc(NC(=O)N4CCC[C@H]4CN4CCCC4)cc3)cc2N1Cc1cc(F)ccc1F [Example 61, (S)-2-[(pyrrolidin-1-yl)methyl]pyrrolidine-1-carboxylic acid{4-[1-(2,5-difluorobenzyl)-2-oxo-1,2,3,4-tetrahydropyrido[2,3-b]pyrazin-7-yl]phenyl}-amide]	1 to 10	0.1 to 1
CN(C)CCNC(=O)c1cccc(-c2cnc3c(c2)N(Cc2ccccc2)C(=O)CN3)c1 [Example 19, 3-(1-Benzyl-2-oxo-1,2,3,4-tetrahydropyrido[2,3-b]pyrazin-7-yl)-N-(2-dimethylamino-ethyl)benzamide, trifluoroacetic acid salt]	10 to 100	1 to 10
CN1CCN(CCS(=O)(=O)Nc2ccc(-c3cnc4c(c3)N(C(=O)c3ccccc3)CCN4)cc2)CC1 [Example 47, 2-(4-Methylpiperazin-1-yl)-ethanesulfonic acid[4-(1-benzoyl-1,2,3,4-tetrahydropyrido[2,3-b]pyrazin-7-yl)phenyl]amide]	10 to 100	10 to 100
O=C(c1cc(F)ccc1F)N1CCNc2ncc(-c3ccc(C(=O)N4CCC[C@H]4CN4CCCC4)cc3)cc21 [Example 89, (2,5-Difluorophenyl)-{7-[4-((S)-2-[(pyrrolidin-1-yl)methyl]pyrrolidine-1-carbonyl)phenyl]-3,4-dihydro-2H-pyrido[2,3-b]pyrazin-1-yl}-methanone]	10 to 100	10 to 100
O=C(c1cnc2c(c1)N(Cc1cc(Cl)ccc1Cl)CCN2)N1CCN(C(=O)C2CCCO2)CC1 (stereo not shown) [Example 252, [1-(2,5-Dichlorobenzyl)-1,2,3,4-tetrahydropyrido[2,3-b]pyrazin-7-yl]-[4-(tetrahydrofuran-2-carbonyl)piperazin-1-yl]methanone]	> 100	10 to 100

The next lines start with the values.

IC50 [1] [µM]	IC50 [2] [µM]	SMILES
> 100	1 to 10	O=C(NCc1cccc2ccccc12)c1cnc2c(c1)N(Cc1cc(Cl)ccc1Cl)CCN2 [Example 244, 1-(2,5-Dichlorobenzyl)-1,2,3,4-tetrahydropyrido[2,3-b]pyrazine-7-carboxylic acid (naphthalen-1-yl-methyl)amide]
> 100	0.1 to 1	O=C(c1cnc2c(c1)N(Cc1cc(Cl)ccc1Cl)CCN2)N1CCN(c2ccc(Cl)cc2)CC1 [Example 250, [4-(4-Chlorophenyl)piperazin-1-yl]-[1-(2,5-dichlorobenzyl)-1,2,3,4-tetrahydropyrido[2,3-b]pyrazin-7-yl]methanone]
> 100	1 to 10	O=C(c1cnc2c(c1)N(Cc1cc(Cl)ccc1Cl)CCN2)N1CCCC1c1cccnc1 (stereo not shown) [Example 264, [1-(2,5-Dichlorobenzyl)-1,2,3,4-tetrahydropyrido[2,3-b]pyrazin-7-yl]-(2-pyridin-3-yl-pyrrolidin-1-yl)methanone]
> 100	0.1 to 1	O=C(NCCc1cccs1)c1cnc2c(c1)N(Cc1cc(Cl)ccc1Cl)CCN2 [Example 232, 1-(2,5-Dichlorobenzyl)-1,2,3,4-tetrahydropyrido[2,3-b]pyrazine-7-carboxylic acid (2-thiophen-2-yl-ethyl)amide]
> 100	1 to 10	NS(=O)(=O)c1ccc(CNC(=O)c2cnc3c(c2)N(Cc2cc(Cl)ccc2Cl)CCN3)cc1 [Example 263, 1-(2,5-Dichlorobenzyl)-1,2,3,4-tetrahydropyrido[2,3-b]pyrazine-7-carboxylic acid 4-sulfamoyl-benzylamide]
10 to 100	1 to 10	O=C(c1cnc2c(c1)N(Cc1cc(Cl)ccc1Cl)CCN2)N1CCC(N2CCOCC2)CC1 [Example 231, [1-(2,5-Dichlorobenzyl)-1,2,3,4-tetrahydropyrido[2,3-b]pyrazin-7-yl]-(4-morpholin-4-yl-piperidin-1-yl)methanone]
> 100	1 to 10	O=C(NCC1CCCO1)c1cnc2c(c1)N(Cc1cc(Cl)ccc1Cl)CCN2 (stereo not shown) [Example 254, 1-(2,5-Dichlorobenzyl)-1,2,3,4-tetrahydropyrido[2,3-b]pyrazine-7-carboxylic acid (tetrahydrofuran-2-yl-methyl)amide]
10 to 100	1 to 10	O=C(NC1CCN(Cc2ccccc2)CC1)c1cnc2c(c1)N(Cc1cc(Cl)ccc1Cl)CCN2 [Example 225, 1-(2,5-Dichlorobenzyl)-1,2,3,4-tetrahydropyrido[2,3-b]pyrazine-7-carboxylic acid (1-benzyl-piperidin-4-yl)amide]
> 100	1 to 10	O=C(NC1CCCCC1)c1cnc2c(c1)N(Cc1cc(Cl)ccc1Cl)CCN2 [Example 248, 1-(2,5-Dichlorobenzyl)-1,2,3,4-tetrahydropyrido[2,3-b]pyrazine-7-carboxylic acid cyclohexylamide]
> 100	1 to 10	COc1ccc(CNC(=O)c2cnc3c(c2)N(Cc2cc(Cl)ccc2Cl)CCN3)cc1 [Example 258, 1-(2,5-Dichlorobenzyl)-1,2,3,4-tetrahydropyrido[2,3-b]pyrazine-7-carboxylic acid 4-methoxybenzylamide]
> 100	10 to 100	O=C(c1cnc2c(c1)N(Cc1cc(Cl)ccc1Cl)CCN2)N1CCN(CC2CCCCC2)CC1 [Example 262, [(4-Cyclohexylmethyl)piperazin-1-yl]-[1-(2,5-dichlorobenzyl)-1,2,3,4-tetrahydropyrido[2,3-b]pyrazin-7-yl]methanone]
> 100	> 100	O=C(O)c1ccc(-c2cnc3c(c2)N(Cc2cccnc2Cl)CCN3)cc1 [Example 302, 4-[1-(2-Chloropyridin-3-ylmethyl)-1,2,3,4-tetrahydropyrido[2,3-b]pyrazin-7-yl]benzoic acid]
1 to 10	1 to 10	Cc1cc(N2CCN(C(=O)c3cnc4c(c3)N(Cc3cc(Cl)ccc3Cl)CCN4)CC2)c2ccccc2n1 [Example 237, [1-(2,5-Dichlorobenzyl)-1,2,3,4-tetrahydropyrido[2,3-b]pyrazin-7-yl]-[4-(2-methylquinolin-4-yl)piperazin-1-yl]methanone]
10 to 100	0.1 to 1	O=C(NC1CCc2ccccc21)c1cnc2c(c1)N(Cc1cc(Cl)ccc1Cl)CCN2 (stereo not shown) [Example 245, 1-(2,5-Dichlorobenzyl)-1,2,3,4-tetrahydropyrido[2,3-b]pyrazine-7-carboxylic acid indan-1-ylamide]
10 to 100	10 to 100	O=C(c1cnc2c(c1)N(Cc1cc(Cl)ccc1Cl)CCN2)N1CCN(C(c2ccccc2)c2ccccc2)CC1 [Example 214, (4-Benzhydrylpiperazin-1-yl)-[1-(2,5-dichlorobenzyl)-1,2,3,4-tetrahydropyrido[2,3-b]pyrazin-7-yl]methanone]
